Measurements reported in patent US20260150798A1, “METHODS AND COMPOSITIONS FOR IMPROVED PLANT REGENERATION FROM MICROSPORE-DERIVED EMBRYOS” (Monsanto Technology LLC, priority 2022, published 2026).
“Also recorded” adds a separate entry of the source.

Tested on: microspore-derived embryos from 10 proprietary canola lines
Assay: Culture-free maturation and regeneration of microspore-derived embryos in soil, canola
Type: in vivo
Conditions: 5 mg/L added to MDE Maturation Medium, about 1 to about 24 hours before transfer to soil
Protocol: The optimal time to dilute the microspore-derived embryos to a concentration of about 200 to about 400 embryos per plate containing 15 mL medium is about 15 days to about 20 days after the beginning microspore culture initiation (days after culture) (DAC). At this stage, the embryos are green, individually distinguishable with the naked eye, and the majority are in the torpedo stage of development. During the dilution step the embryogenesis induction medium (NLN13) is replaced with MDE Maturation Medium. The microspore-derived embryos were diluted by transferring about 200 to about 400 embryos to a new plate containing 15 mL of MDE Maturation Medium. If the original plates have a starting concentration of about 200 embryos per plate or less, then the media of the original plate is replaced with MDE Maturation Medium without embryo dilution. Following dilution and/or media replacement, plates were returned to 100 μmol fluorescent light for a 16 hour photoperiod, 25° C. day and night with an orbital shaker set to 60 RPM, and cultured to about 28 to about 30 DAC to reach a matured cotyledon stage before transferring to a solid regeneration medium. […] Regeneration rate was measured after 28 days of incubation. Microspore-derived embryos from 10 proprietary canola lines were analyzed in a series of protocols to identify optimized conditions for culture-free maturation and regeneration. […]

O=C(O)CCCc1c[nH]c2ccccc12 [IBA, indole-3-butyric acid]
effect on rooting, plantlet survival and establishment in soil: accelerates rooting and increases plantlet survival and establishment in soil; also recorded: improves rooting
